Measurements: patent publication US11987588B2, “Modulators of the beta-3 adrenergic receptor useful for the treatment or prevention of heart failure and disorders related thereto” (Arena Pharmaceuticals, Inc., priority 2017, dated 2024)

The compounds below were run against Beta-3 Adrenergic Receptor (Homo sapiens (Human), UniProt P13945) (assay: Homogeneous Time-Resolved Fluorescence (HTRF) cAMP antagonist assay, IC50 determination). Settings: CHO-K1 cells stably expressing recombinant receptor, isoproterenol at EC90.
Sequence of Beta-3 Adrenergic Receptor (P13945 whole entry, species assumed): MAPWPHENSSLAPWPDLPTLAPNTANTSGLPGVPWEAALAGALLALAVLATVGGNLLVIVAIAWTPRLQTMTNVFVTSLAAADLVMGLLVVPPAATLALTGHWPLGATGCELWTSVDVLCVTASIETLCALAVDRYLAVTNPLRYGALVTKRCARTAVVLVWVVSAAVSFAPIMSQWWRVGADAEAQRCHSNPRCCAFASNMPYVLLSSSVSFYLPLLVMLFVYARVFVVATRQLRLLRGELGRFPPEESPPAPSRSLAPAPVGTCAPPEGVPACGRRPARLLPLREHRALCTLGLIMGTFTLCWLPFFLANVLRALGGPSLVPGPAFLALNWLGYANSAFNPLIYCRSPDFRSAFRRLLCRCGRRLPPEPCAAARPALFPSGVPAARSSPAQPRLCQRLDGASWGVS
Format: cell-based
Method in brief: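 CHO-K1 cells stably expressing the recombinant receptor were preincubated with compound (10-point, 5-fold dilutions; top final typically 10 or 100 μM) in PBS with 1 mM IBMX, then stimulated with isoproterenol at its EC90 for 1 h at room temperature. cAMP was read by HTRF against an on-plate standard curve.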
In the case of O=S(=O)(NC1(CO)CC1)c1cccc(OC[C@@H](O)CNC2COC3(CCN(S(=O)(=O)c4ccc5ccccc5c4)CC3)C2)c1 (stereo partly drawn) [Compound 99, 3-((2S)-2-hydroxy-3-(8-(naphthalen-2-ylsulfonyl)-1-oxa-8-azaspiro[4.5]decan-3-ylamino)propoxy)-N-(1-(hydroxymethyl)cyclopropyl)benzenesulfonamide], the IC50 is reported as 121 nM.
CNS(=O)(=O)c1cccc(OC[C@@H](O)CNC2COC3(CCN(S(=O)(=O)c4ccc(-c5ccccc5)s4)CC3)C2)c1 (stereo partly drawn) [Compound 187, 3-((2S)-2-hydroxy-3-(8-(5-phenylthiophen-2-ylsulfonyl)-1-oxa-8-azaspiro[4.5]decan-3-ylamino)propoxy)-N-methylbenzenesulfonamide] showed an IC50 of 7.72 nM.
With CNS(=O)(=O)c1cccc(OC[C@@H](O)CN[C@H]2COC3(CCN(S(=O)(=O)c4cnc5c(c4)COCC5)CC3)C2)c1 [Compound 488, 3-((S)-3-((R)-8-(7,8-dihydro-5H-pyrano[4,3-b]pyridin-3-ylsulfonyl)-1-oxa-8-azaspiro[4.5]decan-3-ylamino)-2-hydroxypropoxy)-N-methylbenzenesulfonamide] the IC50 was 38.1 nM.
Compound CNS(=O)(=O)c1cccc(OC[C@@H](O)CNC2COC3(CCN(S(=O)(=O)c4cccc(-c5cccc(C#N)c5)c4)CC3)C2)c1 (stereo partly drawn) [Compound 72, 3-((2S)-3-(8-(3′-cyanobiphenyl-3-ylsulfonyl)-1-oxa-8-azaspiro[4.5]decan-3-ylamino)-2-hydroxypropoxy)-N-methylbenzenesulfonamide] has an IC50 of 28.7 nM.
Work on CCNS(=O)(=O)c1cccc(OC[C@@H](O)CN[C@H]2COC3(CCN(S(=O)(=O)c4cnc5c(c4)N(C)CCO5)CC3)C2)c1 [Compound 456, N-ethyl-3-((S)-2-hydroxy-3-((R)-8-(1-methyl-2,3-dihydro-1H-pyrido[2,3-b][1,4]oxazin-7-ylsulfonyl)-1-oxa-8-azaspiro[4.5]decan-3-ylamino)propoxy)benzenesulfonamide] yielded an IC50 of 16.4 nM.
Compound CNS(=O)(=O)c1cccc(OC[C@@H](O)CNC2COC3(CCN(S(=O)(=O)c4cc(C(F)(F)F)ccc4Cl)CC3)C2)c1 (stereo partly drawn) [Compound 133, 3-((2S)-3-(8-(2-chloro-5-(trifluoromethyl)phenylsulfonyl)-1-oxa-8-azaspiro[4.5]decan-3-ylamino)-2-hydroxypropoxy)-N-methylbenzenesulfonamide] has an IC50 of 65.4 nM.
For CNS(=O)(=O)c1cccc(OC[C@@H](O)CNC2COC3(CCN(S(=O)(=O)c4cccc(Cl)c4C)CC3)C2)c1 (stereo partly drawn) [Compound 143, 3-((2S)-3-(8-(3-chloro-2-methylphenylsulfonyl)-1-oxa-8-azaspiro[4.5]decan-3-ylamino)-2-hydroxypropoxy)-N-methylbenzenesulfonamide], the IC50 was 17.1 nM.
For CCC(C)(C)c1ccc(S(=O)(=O)N2CCC3(CC2)CC(NC[C@H](O)COc2cccc(S(=O)(=O)NC)c2)CO3)cc1 (stereo partly drawn) [Compound 120, 3-((2S)-2-hydroxy-3-(8-(4-tert-pentylphenylsulfonyl)-1-oxa-8-azaspiro[4.5]decan-3-ylamino)propoxy)-N-methylbenzenesulfonamide], the IC50 was 36.4 nM.
With CNS(=O)(=O)c1cccc(OC[C@@H](O)CNC2COC3(CCN(S(=O)(=O)c4c(Cl)nc5sccn45)CC3)C2)c1 (stereo partly drawn) [Compound 129, 3-((2S)-3-(8-(6-chloroimidazo[2,1-b]thiazol-5-ylsulfonyl)-1-oxa-8-azaspiro[4.5]decan-3-ylamino)-2-hydroxypropoxy)-N-methylbenzenesulfonamide] the IC50 was 24.9 nM.
For CCN1CCOc2ccc(S(=O)(=O)N3CCC4(CC3)CC(NC[C@H](O)COc3cccc(S(=O)(=O)NC)c3)CO4)cc21 (stereo partly drawn) [Compound 333, 3-((2S)-3-(8-(4-ethyl-3,4-dihydro-2H-benzo[b][1,4]oxazin-6-ylsulfonyl)-1-oxa-8-azaspiro[4.5]decan-3-ylamino)-2-hydroxypropoxy)-N-methylbenzenesulfonamide], the IC50 was 9.02 nM.
